# Values joined by “and” are separate entries in the source; they are usually repeats but may differ in a detail not shown here. Equal values may be shown once. Active and inactive are the calls of the source. Cut-off read from the data, not from the text of the source, for most assays here: actives have a measured EC50 and inactives only a lower limit.
# How the values were obtained:
# [1] = HEp-2 cell cytotoxicity, dose response, cytotoxicity control for RSV inhibitor project, HTS (AID 2410); type: functional; conditions: human respiratory syncytial virus
# Cytochrome P450 3A4 = Cytochrome P450 3A4 (Homo sapiens, UniProt P08684);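 note: CYP3A4 tested as one member of a cytochrome P450 panel screen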
# Sequence of Cytochrome P450 3A4 (P08684 whole entry): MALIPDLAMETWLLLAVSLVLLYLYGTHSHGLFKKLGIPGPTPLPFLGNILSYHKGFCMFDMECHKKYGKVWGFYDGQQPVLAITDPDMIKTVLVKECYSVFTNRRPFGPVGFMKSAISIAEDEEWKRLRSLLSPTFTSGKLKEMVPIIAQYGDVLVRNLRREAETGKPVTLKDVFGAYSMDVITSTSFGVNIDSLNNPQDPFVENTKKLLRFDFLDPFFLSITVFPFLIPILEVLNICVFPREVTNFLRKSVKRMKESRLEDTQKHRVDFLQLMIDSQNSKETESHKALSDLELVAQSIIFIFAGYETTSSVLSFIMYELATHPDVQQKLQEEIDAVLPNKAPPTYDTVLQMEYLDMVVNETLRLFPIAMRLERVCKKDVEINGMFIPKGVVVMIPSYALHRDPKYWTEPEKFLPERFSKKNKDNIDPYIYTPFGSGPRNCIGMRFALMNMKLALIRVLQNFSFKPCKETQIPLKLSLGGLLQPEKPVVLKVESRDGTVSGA
# [2] = test system: Streptococcus sp. 'group A'; experiment: growth inhibition of control SK(-) GAS strain, dose response, counter-screen for streptokinase expression inhibitor project, luminescence, kanamycin, BacTiterGlo, confirmation (AID 1900); type: functional, organism-based
# Streptokinase A = molecular target: T1, Streptokinase A (Streptococcus pyogenes serotype M1, UniProt P10520); experiment: S. pyogenes streptokinase expression inhibitors, potency, dose response, plasminogen activation absorbance, OD405 (AID 1914); type: functional, Streptococcus pyogenes M1 GAS;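 note: secreted streptokinase activity via plasminogen activation per viability signal from cell pellet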
# T1 sequence (P10520 whole entry): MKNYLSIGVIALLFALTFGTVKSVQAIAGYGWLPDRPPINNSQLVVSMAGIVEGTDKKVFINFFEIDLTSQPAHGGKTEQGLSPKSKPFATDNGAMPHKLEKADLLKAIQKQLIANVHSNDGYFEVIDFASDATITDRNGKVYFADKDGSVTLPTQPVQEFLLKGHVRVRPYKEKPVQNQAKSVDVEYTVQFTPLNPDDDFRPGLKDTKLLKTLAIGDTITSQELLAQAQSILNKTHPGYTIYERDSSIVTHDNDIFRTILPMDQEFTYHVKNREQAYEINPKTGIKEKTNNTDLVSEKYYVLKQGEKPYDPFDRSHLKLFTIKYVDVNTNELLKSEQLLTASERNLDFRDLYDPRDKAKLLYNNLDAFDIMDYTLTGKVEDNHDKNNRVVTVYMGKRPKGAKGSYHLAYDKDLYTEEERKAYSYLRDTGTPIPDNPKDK
# Streptococcus = experiment: Group A Streptococcus viability loss, dose response, counter-screen for streptokinase expression inhibitor project, luminescence, BacTiterGlo (AID 1915); type: functional, organism-based;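 note: potency for reduction of bacterial viability or growth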
# Paired box protein Pax-8 = Paired box protein Pax-8 (Homo sapiens, UniProt Q06710); experiment: inhibitors of PAX8-driven TPO luciferase reporter, dose response, RMG-I cells, cherry-pick (AID 687027); type: functional, cell-based;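 note: luciferase reporter driven by Pax8 target thyroperoxidase promoter measured by SteadyGlo luminescence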
# Sequence of Paired box protein Pax-8 (Q06710 whole entry): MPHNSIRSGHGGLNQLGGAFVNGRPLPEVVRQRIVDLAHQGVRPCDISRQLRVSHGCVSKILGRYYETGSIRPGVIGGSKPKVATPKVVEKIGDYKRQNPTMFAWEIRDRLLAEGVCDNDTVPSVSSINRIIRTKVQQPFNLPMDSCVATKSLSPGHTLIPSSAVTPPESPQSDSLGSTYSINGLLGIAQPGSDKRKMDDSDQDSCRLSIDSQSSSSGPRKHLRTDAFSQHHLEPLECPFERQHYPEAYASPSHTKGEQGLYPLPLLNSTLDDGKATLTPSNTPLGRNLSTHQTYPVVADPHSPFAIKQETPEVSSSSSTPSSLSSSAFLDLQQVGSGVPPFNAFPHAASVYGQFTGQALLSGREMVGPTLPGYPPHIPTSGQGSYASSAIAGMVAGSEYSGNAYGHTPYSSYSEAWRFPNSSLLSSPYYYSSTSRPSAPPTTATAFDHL
# [3] = Luminescence Cell-Based Dose Retest to Confirm Inhibitors of Cancer Stem Cells. [Related pubchem assays (depositor defined):AID2717, AID2721]; type: functional; conditions: Homo sapiens
# [4] = inhibitors of intracellular T. cruzi replication, confirmation, NIH3T3 host cells, beta-gal luminescence (AID 2044); type: functional, cell-based;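 note: intracellular parasites grown in NIH/3T3 mouse fibroblasts as host cells; luminescent beta-galactosidase reporter signal from transgenic T. cruzi replicating inside host cells; inhibitors lower the luminescence signal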
# [5] = cytotoxicity toward NIH3T3 fibroblasts, dose response, counter-screen, cell-based, ATP luminescence, mouse fibroblasts (AID 2010); type: functional;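 note: cells exposed to compound for about 90 hours before reading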
compound,measurement,setting,value
CCN(CC(=O)Nc1ccc(S(=O)(=O)N2CCCCC2)cc1)Cc1ccccc1,CC50,[1],28 µM (active)
CN(C)Cc1c[nH]c2ccccc12 [GRAMINE],AC50,Cytochrome P450 3A4,3.16 µM (inconclusive)
Cc1ccsc1C1C=C(c2cccc(Br)c2)Nc2ncnn21 (stereo not drawn),EC50,[2],7.49 µM (active)
same,EC50,Streptokinase A,> 150 µM (not active)
same,EC50,Streptococcus,> 150 µM (not active)
O=C(Nc1ccccc1Cl)c1cccc(COc2cc(Cl)ccc2Cl)c1,CC50,[1],> 50 µM (active)
CCC1(C)Cc2ccccc2-c2nc(-c3ccccc3)oc(=O)c21 (stereo not drawn),EC50,[2],14 µM (active)
same,EC50,Streptokinase A,13.2 µM (active)
same,EC50,Streptococcus,> 150 µM (not active)
Cc1ccc(Nc2cc(C)nc(-c3ccccc3O)n2)cc1,CC50,[1],14.6 µM (active)
O=C(c1cccc(F)c1)N1CCN(c2cc(N3CCCCC3)c(F)cc2[N+](=O)[O-])CC1,CC50,[1],22.2 µM (active)
CCS(=O)(=O)N1Cc2ccccc2CC1C(=O)Nc1nnc(SCc2c(Cl)cccc2Cl)s1 (stereo not drawn),AC50,Paired box protein Pax-8,34.9 µM (active)
CC[C@H]1CC2CN3CCc4c([nH]c5c([C@H]6C[C@H]7[C@H](CC)CN(C)[C@@H](Cc8c6[nH]c6ccccc86)[C@H]7C(=O)OC)c(OC)ccc45)C(C(=O)OC)(C2)C13,AC50,[3],1.99 µM (active)
O=C(CN1CCCC1)Nc1ccc(NC(=O)Nc2ccccc2)cc1,EC50,[2],> 150 µM (not active)
same,EC50,Streptokinase A,> 150 µM (not active)
same,EC50,Streptococcus,> 150 µM (not active)
CON(C)C(=O)c1nnc2c3ccccc3n(S(=O)(=O)c3ccc(C)cc3)c2n1,AC50,Cytochrome P450 3A4,3.98 µM (inconclusive) and 3.16 µM (inconclusive)
Cc1c(Cl)cnc(NC(=O)COC(=O)CCS(=O)(=O)c2ccccc2)c1Cl,AC50,Cytochrome P450 3A4,15.8 µM (inconclusive)
Cc1cccc(NC(=O)c2[nH]cnc2C(=O)N[C@@H](Cc2ccccc2)C(=O)OC(C)(C)C)c1,EC50,[2],2.46 µM (active)
same,EC50,Streptococcus,3.87 µM (active)
COc1ccc(-c2nc3cnc(Nc4cccc(OC)c4)nc3n(Cc3cccs3)c2=O)cc1,AC50,Cytochrome P450 3A4,6.31 µM (inconclusive)
CC(C)c1ccc(C(=O)NCCCN(C)C)cc1,EC50,[4],1.27 µM (active)
same,EC50,[5],> 60 µM (not active)
O=C(Nc1cccc([N+](=O)[O-])c1)C12CC3CC(C1)CC(n1cnc([N+](=O)[O-])n1)(C3)C2,EC50,[4],0.102 µM (active)
same,EC50,[5],> 60 µM (not active)
Cc1nnc(SCC2=C(C(=O)O)N3C(=O)C(NC(=O)c4cc(F)c(F)cc4Cl)C3SC2)s1 (stereo not drawn),EC50,[2],0.515 µM (active)
same,EC50,Streptokinase A,> 150 µM (not active)
same,EC50,Streptococcus,0.815 µM (active)
Cc1nn2c(N3CCN(C)CC3)cc(C(C)(C)C)nc2c1-c1ccccc1,EC50,[4],0.145 µM (active)
same,EC50,[5],4.77 µM (active)
COc1cccc2cc(-c3csc(CCn4nc(C)cc4C)n3)c(=O)oc12,CC50,[1],41.8 µM (active)
CC(=O)OC[C@@H]1O[C@H](CCO/N=C(\C)CCN2CCCc3nc(C)c(C)cc32)C=C[C@@H]1OC(C)=O,AC50,Cytochrome P450 3A4,3.98 µM (inconclusive)
CCN(CC)C(=O)N[C@H]1C[C@H]2c3cccc4[nH]cc(c34)C[C@@H]2N(C)C1,AC50,Cytochrome P450 3A4,10 µM (inconclusive)
C/C(=N\c1ccc(C)cc1C)c1sc2ccccc2c1O,CC50,[1],17.8 µM (active)
COc1ccccc1-c1c(C)nn2c(N)c(-c3ccccc3)cnc12,CC50,[1],24.2 µM (active)
Cc1cc(C)c2c(C(C)(C)C)nn(-c3ccccc3)c2n1,EC50,[2],15.1 µM (active)
same,EC50,Streptokinase A,30.2 µM (active)
same,EC50,Streptococcus,15.7 µM (active)
Cc1cc(=O)oc2c3c(cc(OCC(=O)NC4CC4)c12)OC(C)(C)CC3,EC50,[2],> 150 µM (not active)
same,EC50,Streptokinase A,> 150 µM (not active)
same,EC50,Streptococcus,> 150 µM (not active)
CC12CCC3c4ccc(O)cc4CCC3C1CCC2=O (stereo not drawn),CC50,[1],29.6 µM (active)
COc1ccc(/C=N/NC(=O)CCn2cnc(-c3ccccc3)c2-c2ccccc2)cc1OC,AC50,[3],0.404 µM (active)
C[C@H](CO)N1C[C@H](C)[C@@H](CN(C)S(=O)(=O)c2ccc(F)cc2)Oc2ccc(NC(=O)Nc3ccc(C(F)(F)F)cc3)cc2C1=O,AC50,[3],4.25 µM (active)
CC(C)Oc1ccc(C(=O)Nc2nnc(C3=COCCO3)o2)cc1,EC50,[2],0.766 µM (active)
same,EC50,Streptokinase A,> 150 µM (not active)
same,EC50,Streptococcus,14.8 µM (active)
Cn1nnnc1Sc1ncnc2scc(-c3cccc4c3sc3ccccc34)c12,AC50,[3],1.25 µM (active)
same,AC50,Paired box protein Pax-8,3.89 µM (active)
Nc1ncc2c(n1)-c1cc(Cl)ccc1SC2,EC50,[4],1.55 µM (active)
same,EC50,[5],> 60 µM (not active)
Clc1ccc(-c2csc(N/N=C\c3cccnc3)n2)cc1,EC50,[4],1.84 µM (active)
same,EC50,[5],> 60 µM (not active)
Cc1ccc(CN2CCN(Cc3ccc(-n4cccn4)cc3C)CC2CCO)cc1 (stereo not drawn),EC50,[4],0.651 µM (active)
same,EC50,[5],> 30 µM (not active)
COc1ccc(/N=C2\SC(CC(=O)Nc3ccccc3F)C(=O)N2Cc2ccco2)cc1 (stereo not drawn),CC50,[1],25.1 µM (active)
CC1=C(C(N)=O)C(c2cccnc2)n2nc(-c3cccc(C)c3)nc2N1 (stereo not drawn),EC50,[4],> 60 µM (not active)
same,EC50,[5],> 60 µM (not active)
CCC1CCc2sc(C(=O)NC3CCN(Cc4ccccc4)CC3)cc2C1 (stereo not drawn),EC50,[4],0.48 µM (active)
same,EC50,[5],5.09 µM (active)
COc1ccc2c(c1)CCC1=C2N=C(S)NC1c1ccc(N(C)C)cc1 (stereo not drawn),EC50,[4],2.62 µM (active)
same,EC50,[5],> 60 µM (not active)
COc1ccc(Br)cc1C(=O)Nc1ccccc1N1CCN(C(=O)c2ccccc2)CC1,CC50,[1],29 µM (active)
same,EC50,[4],1.46 µM (active)
same,EC50,[5],> 60 µM (not active)
CCOc1ccc(-c2nnc3ccc(SC(C)C)nn23)cc1,EC50,[2],2.79 µM (active)
same,EC50,Streptokinase A,> 150 µM (not active)
same,EC50,Streptococcus,22.9 µM (active)
COc1ccc(N2CCN(C(S)=Nc3cc(C)ccc3C)CC2)cc1,AC50,Cytochrome P450 3A4,3.16 µM (inconclusive)
O=C(NCC1CCCO1)c1ccc([N+](=O)[O-])s1 (stereo not drawn),EC50,[4],0.728 µM (active)
same,EC50,[5],> 30 µM (not active)
O=C(/C=C/c1ccccc1)NCCc1ccccc1,EC50,[2],> 150 µM (not active)
same,EC50,Streptokinase A,48.7 µM (active)
same,EC50,Streptococcus,> 150 µM (not active)
Cc1nn(CC(=O)Nc2c(F)c(F)cc(F)c2F)c(=O)c2cccn12,EC50,[2],> 150 µM (not active)
same,EC50,Streptokinase A,> 150 µM (not active)
same,EC50,Streptococcus,> 150 µM (not active)
C[C@@H]1CN([C@H](C)CO)C(=O)c2cc(NC(=O)Nc3ccc(C(F)(F)F)cc3)ccc2O[C@@H](C)CCCCO[C@H]1CN(C)Cc1ccccc1,AC50,Paired box protein Pax-8,12.2 µM (active)
COc1ccc(CN2CCc3ccc(NC(=O)c4ccncc4)cc3C2)c(F)c1,EC50,[2],> 150 µM (not active)
same,EC50,Streptokinase A,> 150 µM (not active)
same,EC50,Streptococcus,> 150 µM (not active)
COC(=O)c1cc(=O)n(Cc2cccs2)/c(=N/c2ccccc2)s1,AC50,[3],5.15 µM (active)
CC(=O)NNc1cccc(Cl)n1,AC50,[3],> 195 µM (inactive)
CCCCCn1c(=O)[nH]c2cc(C(=O)NCCCN(C)Cc3ccccc3)ccc2c1=O,EC50,[4],0.911 µM (active)
same,EC50,[5],> 60 µM (inconclusive)
CCCCn1c(=N)n(CC(=O)C(C)(C)C)c2ccccc21,EC50,[4],5.54 µM (active)
same,EC50,[5],> 60 µM (not active)
COC(=O)c1ccc(C(=O)OC)c(NC(=O)CN(C)Cc2cccc(Cl)c2Cl)c1,EC50,[2],11.2 µM (active)
same,EC50,Streptokinase A,13.9 µM (active)
same,EC50,Streptococcus,> 150 µM (not active)
COCCNC(=O)CCC1CCN(Cc2ccc(-c3ccccc3)cc2)CC1,EC50,[4],1.77 µM (active)
same,EC50,[5],> 60 µM (not active)
Cc1ccc(CN2CCCC(C(=O)c3sccc3C)C2)o1 (stereo not drawn),EC50,[4],0.719 µM (active)
same,EC50,[5],> 60 µM (not active)
COc1ccccc1CNc1ccnc(-c2ccccc2Cl)n1,AC50,Cytochrome P450 3A4,2.51 µM (inconclusive)
COc1ccc(C)cc1NC(=O)CNC(c1ccccc1)c1ccccc1,EC50,[2],28.9 µM (active)
same,EC50,Streptokinase A,> 150 µM (not active)
same,EC50,Streptococcus,96.1 µM (active)
Cc1cccc(-n2cc(-c3ccccc3)c3c(N4CCOCC4)ncnc32)c1,AC50,[3],5.24 µM (active)
COc1ccc(NC(=O)N2CC3(CCN(C(=O)c4ccncc4)CC3)C2)cc1,AC50,Cytochrome P450 3A4,15.8 µM (inconclusive)
COC(=O)C1=CN(Cc2ccc(OC)c(OC)c2)C=C(C(=O)OC)C1c1cccc(O)c1,EC50,[4],0.311 µM (active)
same,EC50,[5],> 60 µM (not active)
S=C(Nc1ccccc1)Nc1nc2ccccc2n1CCOc1ccc(Br)cc1,AC50,[3],11.6 µM (active)
CCN(CC(=O)Nc1c(C(=O)OC)[nH]c2ccc(C)cc12)c1ccc2c(c1)OCO2,CC50,[1],> 50 µM (active)
O=Cc1ccc(Oc2cc(-c3ccccc3)nc(-c3ccccc3)n2)cc1,AC50,[3],3.14 µM (active)
O=c1c2ccc([N+](=O)[O-])cc2ncn1CCOc1ccc(Cl)cc1,EC50,[4],0.145 µM (active)
same,EC50,[5],> 30 µM (not active)
C=CCn1c2ccccc2c2nnc(SCc3nc(O)[nH]c3C(=O)CCCCC(=O)OCC)nc21,CC50,[1],> 50 µM (active)

# Reference: ChEMBL document CHEMBL1201862, “PubChem BioAssay data set” (2004)
